According to the NIST ThermoML archive (doi:10.1016/j.jct.2015.02.020):

Experiments:
[1] = 101.33 kPa, Liquid; for viscosity: Falling or rolling sphere viscometry; for speed of sound: Sing-around technique in a fixed-path interferometer; for mass density: Vibrating tube method
[2] = refractive index (Na D-line) (dimensionless); settings: 101.33 kPa, Liquid, Standard Abbe refractometry

CC[n+]1ccc(C)cc1.O=S(=O)([N-]S(=O)(=O)C(F)(F)F)C(F)(F)F
Settings	mass density, [1] [kg/m3]	refractive index, [2]	speed of sound, [1] [m/s]	viscosity, [1] [mPa·s]
293.15 K	1491.6	1.44562	1275.3	40.01
298.15 K	1486.67	1.44412	1263.8	32.83
303.15 K	1481.76	1.4426	1252.4	27.39
308.15 K	1476.87	1.44108	1241.2	23.17
313.15 K	1472	1.43954	1230.1	19.8
318.15 K	1467.15	1.43794	1219.2	17.17
323.15 K	1462.32	1.43641	1208.3	15
328.15 K	1457.52	1.43493	1197.3	13.26
333.15 K	1452.73	1.43344	1187	11.82
338.15 K	1447.96	1.43195	1176.5	10.57
343.15 K	1443.21	1.43047	1166.1	9.51

CC[n+]1cccc(C)c1.O=S(=O)([N-]S(=O)(=O)C(F)(F)F)C(F)(F)F
Settings	mass density, [1] [kg/m3]	refractive index, [2]	speed of sound, [1] [m/s]	viscosity, [1] [mPa·s]
293.15 K	1493.4	1.44503	1270.6	47.85
298.15 K	1488.54	1.44355	1259.6	39.08
303.15 K	1483.69	1.44204	1248.5	32.33
308.15 K	1478.86	1.44056	1237.5	27.12
313.15 K	1474.05	1.43904	1226.7	23.06
318.15 K	1469.26	1.43751	1216	19.81
323.15 K	1464.49	1.43599	1205.4	17.32
328.15 K	1459.74	1.43451	1194.9	15.15
333.15 K	1455.01	1.43304	1184.6	13.39
338.15 K	1450.3	1.4316	1174.3	11.92
343.15 K	1445.6	1.43014	1164.2	10.67

CC[n+]1ccccc1C.O=S(=O)([N-]S(=O)(=O)C(F)(F)F)C(F)(F)F
Settings	mass density, [1] [kg/m3]	refractive index, [2]	speed of sound, [1] [m/s]	viscosity, [1] [mPa·s]
293.15 K	1510.22	1.44938	1310.9	97.02
298.15 K	1505.35	1.44789	1299.5	75.84
303.15 K	1500.5	1.4464	1288.5	60.69
308.15 K	1495.66	1.44493	1277.3	49.76
313.15 K	1490.85	1.44343	1266.3	41.04
318.15 K	1486.06	1.44181	1255.4	34.3
323.15 K	1481.29	1.44037	1244.6	29.05
328.15 K	1476.54	1.4388	1234	24.86
333.15 K	1471.81	1.43744	1223.4	21.51
338.15 K	1467.11	1.43599	1213	18.71
343.15 K	1462.42	1.43454	1202.7	16.54

CC[n+]1ccccc1.O=S(=O)([N-]S(=O)(=O)C(F)(F)F)C(F)(F)F [1-ethylpyridinium bis[(trifluoromethyl)sulfonyl]imide]
Settings	mass density, [1] [kg/m3]	refractive index, [2]	speed of sound, [1] [m/s]	viscosity, [1] [mPa·s]
293.15 K	1540.83	1.44227	1279.1	50.27
298.15 K	1535.84	1.44091	1268.1	41.08
303.15 K	1530.87	1.43939	1257.1	34.17
308.15 K	1525.92	1.43788	1246.3	28.79
313.15 K	1520.99	1.43637	1235.6	24.58
318.15 K	1516.08	1.4349	1225	21.18
323.15 K	1511.2	1.43339	1214.5	18.48
328.15 K	1506.34	1.43193	1204.2	16.26
333.15 K	1501.5	1.43048	1193.9	14.35
338.15 K	1496.67	1.42905	1183.8	12.79
343.15 K	1491.87	1.42762	1173.8	11.48
